Results taken from the NIST ThermoML archive (doi:10.1016/j.jct.2014.06.012).
Values joined by “and” are separate entries in the source; they are usually repeats but may differ in a detail not shown here. Equal values may be shown once.

Test: molar heat capacity at constant pressure
Settings: 101.33 kPa, Crystal 1

O=P([O-])([O-])[O-].[Cs+].[Mn+2] [cesium manganese(II) phosphate]
molar heat capacity at constant pressure
Settings	Small sample (50 mg) DSC	Vacuum adiabatic calorimetry
240.73 K	–	124.88 J/K/mol
243.23 K	–	125.55 J/K/mol
245.29 K	–	126.13 J/K/mol
247.36 K	–	126.8 J/K/mol
250 K	–	126.96 J/K/mol
250.13 K	–	127.46 J/K/mol
252.55 K	–	128.04 J/K/mol
255.37 K	–	128.79 J/K/mol
258.11 K	–	129.46 J/K/mol
260 K	–	129.62 J/K/mol
260.99 K	–	130.29 J/K/mol
263.88 K	–	131.12 J/K/mol
266.76 K	–	131.87 J/K/mol
269.64 K	–	132.62 J/K/mol
270 K	–	132.37 J/K/mol
272.52 K	–	133.45 J/K/mol
275.39 K	–	134.28 J/K/mol
278.26 K	–	135.19 J/K/mol
280 K	–	135.11 J/K/mol
281.34 K	–	136.02 J/K/mol
283.99 K	–	136.77 J/K/mol
286.86 K	–	137.69 J/K/mol
289.06 K	–	138.1 J/K/mol
290 K	–	138.02 J/K/mol
291.64 K	–	139.02 J/K/mol
295.04 K	–	140.18 J/K/mol
297.8 K	–	141.01 J/K/mol
298.15 K	–	140.43 J/K/mol
300 K	–	141.01 J/K/mol
300.2 K	–	141.76 J/K/mol
302.7 K	–	142.51 J/K/mol
305.33 K	–	143.34 J/K/mol
308.4 K	–	144.17 J/K/mol
310 K	–	144.17 J/K/mol
310.94 K	–	144.92 J/K/mol
314 K	–	145.92 J/K/mol
317.6 K	–	147 J/K/mol
320 K	–	147.58 J/K/mol
320.46 K	–	147.91 J/K/mol
323.3 K	–	148.91 J/K/mol
326.66 K	–	150.08 J/K/mol
329.3 K	–	150.91 J/K/mol
330 K	–	151.16 J/K/mol
330.7 K	151.32 J/K/mol	–
331.64 K	–	151.57 J/K/mol
332.7 K	152.15 J/K/mol	–
333.9 K	152.15 J/K/mol	–
335.3 K	–	152.49 J/K/mol
337 K	152.99 J/K/mol	–
338.7 K	–	153.4 J/K/mol
340 K	153.82 J/K/mol	154.9 J/K/mol
341.6 K	153.82 J/K/mol	–
343.13 K	–	154.65 J/K/mol
345 K	155.48 J/K/mol	–
347.5 K	155.48 J/K/mol	–
350 K	156.31 J/K/mol	–
352.5 K	157.14 J/K/mol	–
355 K	157.14 J/K/mol	–
357.7 K	157.97 J/K/mol	–
360 K	158.81 J/K/mol	–
360.2 K	157.97 J/K/mol	–
362.5 K	158.81 J/K/mol	–
364.9 K	158.81 J/K/mol	–
367.5 K	159.64 J/K/mol	–
370 K	160.47 J/K/mol	–
372.5 K	160.47 J/K/mol	–
374.8 K	161.3 J/K/mol	–
377.3 K	161.3 J/K/mol	–
380 K	162.13 J/K/mol	–
382.2 K	162.13 J/K/mol	–
385 K	162.96 J/K/mol	–
387.5 K	162.96 J/K/mol	–
390 K	163.8 J/K/mol	–
392.5 K	163.8 J/K/mol	–
395 K	164.63 J/K/mol	–
397.5 K	164.63 J/K/mol	–
400 K	164.63 J/K/mol	–
400.3 K	165.46 J/K/mol	–
402.8 K	165.46 J/K/mol	–
405.3 K	166.29 J/K/mol	–
407.5 K	166.29 J/K/mol	–
409.5 K	166.29 J/K/mol	–
410 K	166.29 J/K/mol	–
412.6 K	166.29 J/K/mol	–
415 K	167.12 J/K/mol	–
417.5 K	167.12 J/K/mol	–
420 K	167.12 J/K/mol	–
422.5 K	167.12 J/K/mol	–
425 K	167.95 J/K/mol	–
427.5 K	167.95 J/K/mol	–
430 K	167.95 J/K/mol	–
432.5 K	167.95 J/K/mol	–
435 K	168.78 J/K/mol	–
437.5 K	168.78 J/K/mol	–
440 K	169.62 J/K/mol and 168.78 J/K/mol	–
442.5 K	169.62 J/K/mol	–
445 K	169.62 J/K/mol	–
447.5 K	169.62 J/K/mol	–
450 K	170.45 J/K/mol	–
452.5 K	170.45 J/K/mol	–
455 K	170.45 J/K/mol	–
457.5 K	170.45 J/K/mol	–
460 K	171.28 J/K/mol	–
462.5 K	171.28 J/K/mol	–
465 K	171.28 J/K/mol	–
467.5 K	171.28 J/K/mol	–
469.9 K	172.11 J/K/mol	–
470 K	172.11 J/K/mol	–
472.5 K	172.11 J/K/mol	–
475 K	172.11 J/K/mol	–
477.5 K	172.11 J/K/mol	–
480 K	172.94 J/K/mol	–
482.5 K	172.94 J/K/mol	–
485 K	172.94 J/K/mol	–
487.5 K	172.94 J/K/mol	–
490 K	173.77 J/K/mol	–
492.5 K	173.77 J/K/mol	–
495 K	173.77 J/K/mol	–
497.5 K	174.6 J/K/mol	–
500 K	174.6 J/K/mol	–
502.5 K	174.6 J/K/mol	–
505.3 K	174.6 J/K/mol	–
507.5 K	175.44 J/K/mol	–
510 K	175.44 J/K/mol	–
512.5 K	175.44 J/K/mol	–
515 K	175.44 J/K/mol	–
517.5 K	176.27 J/K/mol	–
520 K	176.27 J/K/mol	–
522.5 K	176.27 J/K/mol	–
525 K	176.27 J/K/mol	–
527.5 K	177.1 J/K/mol	–
530 K	177.1 J/K/mol	–
532.5 K	177.1 J/K/mol	–
535 K	177.1 J/K/mol	–
537.5 K	177.93 J/K/mol	–
540 K	177.93 J/K/mol	–
542.5 K	177.93 J/K/mol	–
545 K	177.93 J/K/mol	–
547.5 K	178.76 J/K/mol	–
550 K	178.76 J/K/mol	–
552.5 K	178.76 J/K/mol	–
555 K	178.76 J/K/mol	–
557.5 K	179.59 J/K/mol	–
560 K	179.59 J/K/mol	–
562.5 K	179.59 J/K/mol	–
565 K	179.59 J/K/mol	–
567.5 K	180.42 J/K/mol	–
570 K	180.42 J/K/mol	–
572.5 K	180.42 J/K/mol	–
575 K	180.42 J/K/mol	–
577.5 K	181.26 J/K/mol	–
580 K	181.26 J/K/mol	–
582.5 K	181.26 J/K/mol	–
585 K	181.26 J/K/mol	–
587.5 K	182.09 J/K/mol	–
590 K	182.09 J/K/mol	–
592.5 K	182.09 J/K/mol	–
595 K	182.09 J/K/mol	–
597.5 K	182.92 J/K/mol	–
600 K	182.92 J/K/mol	–
602.5 K	182.92 J/K/mol	–
605 K	183.75 J/K/mol	–
607.5 K	183.75 J/K/mol	–
610 K	183.75 J/K/mol	–
612.5 K	183.75 J/K/mol	–
615 K	184.58 J/K/mol	–
617.5 K	184.58 J/K/mol	–
620 K	184.58 J/K/mol	–
622.4 K	184.58 J/K/mol	–
625 K	185.41 J/K/mol	–
627.5 K	185.41 J/K/mol	–
630 K	185.41 J/K/mol	–
632.5 K	186.24 J/K/mol	–
635 K	186.24 J/K/mol	–
637.5 K	186.24 J/K/mol	–
640 K	186.24 J/K/mol	–
642.5 K	186.24 J/K/mol	–
645.1 K	187.08 J/K/mol	–
647.5 K	187.08 J/K/mol	–
650 K	187.08 J/K/mol	–
